Reference: US8618355B2, “Aromatic prenyltransferase from hop” (priority 2008, dated 2013)
Where two headings read alike, the source gives them in different places.

What was measured:
HIPT1 [1] = biological target: T1, HIPT1 (Humulus lupulus, UniProt E5RP65, INS53SN/R152W); assay: HIPT1 enzyme assay with aromatic substrate and DMAPP, products analysed by HPLC and LC-MS; format: biochemical; set-up: were designed to amplify the open reading frame (ORF) of the prenlyltransferase gene; N-terminal 6xHis and TEV site from the pFastBacHT C vector (own knowledge of the vector); made in house; host or cells: Spodoptera frugiperda (Sf9) insect cells, baculovirus (Bac-to-Bac); microsomal preparation, not purified; conditions: 0.5 mM aromatic substrate, 0.5 mM DMAPP, 30° C., 120 min, pH 7.0
Description: (§1) HIPT1 enzyme was assayed with phlorisobutyryphenone (PIBP), phlorisovalerophenone (PIVP) and chalconaringenin. Microsomal preparations from Example 2 were used in a 100 μl enzyme assay containing 100 mM Tris-HCl pH 7.0, 10 mM MgCl2, 0.5 mM aromatic substrate (PIBP, PIVP or chalconaringenin), 0.5 mM dimethylallyldiphosphate (DMAPP) and 20 μl of microsomes from insect cells expressing recombinant HIPT1. The assays were incubated at 30° C. for 120 min, the reactions stopped by addition of 5 μl 6N HCl, the reaction products extracted with 200 μl ethyl acetate and dried. The dried products were resuspended in 100 μl of methanol and analyzed by reversed-phase HPLC (solvent A: 0.1% TFA in water, solvent B: acetonitrile; 0-10 min, 40% B to 50% B; 10-20 min, 50% B to 100% B; flow rate 1 ml/min).
Abbreviations: PIBP is phlorisobutyrophenone, PIVP is phlorisovalerophenone, DMAPP is dimethylallyl diphosphate.

HIPT1 [2] = biological target: T1, HIPT1; format: biochemical; set-up: were designed to amplify the open reading frame (ORF) of the prenlyltransferase gene; N-terminal 6xHis and TEV site from the pFastBacHT C vector (own knowledge of the vector); made in house; host or cells: Spodoptera frugiperda (Sf9) insect cells, baculovirus (Bac-to-Bac); microsomal preparation, not purified; conditions: mean ± SD (n = 3), read-out: Km Substrate
Description: as §1

HIPT1 [3] = biological target: T1, HIPT1; assay: Substrate specificity of HIPT1 prenyltransferase activity (14C-DMAPP, radioHPLC); format: biochemical; set-up: were designed to amplify the open reading frame (ORF) of the prenlyltransferase gene; N-terminal 6xHis and TEV site from the pFastBacHT C vector (own knowledge of the vector); made in house; host or cells: Spodoptera frugiperda (Sf9) insect cells, baculovirus (Bac-to-Bac); microsomal preparation, not purified; conditions: aromatic acceptor substrates
Description: Referring to FIG. 9A, prenyltransferase activity of HIPT1 on various substrates was measured using ^14C-DMAPP and thirteen aromatic acceptor substrates. Prenylated products were detected and quantified using radioHPLC. Error bars are SD (n=3). Referring to FIG. 9B, prenyltransferase activity of HIPT1 was measured with different prenyl diphosphate donors and the three major aromatic acceptor substrates, PIBP, PIVP and chalconaringenin. Prenylated products were quantified using HPLC with UV detection. Abbreviations: PIBP, phlorisobutyrophenone, PIVP, phlorisovalerophenone; DMAPP, dimethylallyl diphosphate; IPP, isopentenyl diphosphate; GPP, geranyl diphosphate; GGPP, geranylgeranyl diphosphate. Error bars are SD (n=3).

HIPT1 [4] = biological target: T1, HIPT1; conditions: presence of EDTA

T1 sequence (E5RP65 other isoform, or with tags, fused parts or gaps INS53SN/R152W): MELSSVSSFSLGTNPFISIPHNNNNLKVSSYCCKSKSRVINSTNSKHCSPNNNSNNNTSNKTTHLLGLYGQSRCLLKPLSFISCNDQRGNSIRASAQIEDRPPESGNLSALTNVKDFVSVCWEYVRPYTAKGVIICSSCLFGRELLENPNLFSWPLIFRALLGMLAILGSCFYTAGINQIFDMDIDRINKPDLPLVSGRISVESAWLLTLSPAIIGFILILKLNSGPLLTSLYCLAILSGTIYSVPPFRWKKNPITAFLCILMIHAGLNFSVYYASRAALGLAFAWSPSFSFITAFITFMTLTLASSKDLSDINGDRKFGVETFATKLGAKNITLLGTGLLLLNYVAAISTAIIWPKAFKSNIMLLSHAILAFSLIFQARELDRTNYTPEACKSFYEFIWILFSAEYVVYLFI

Row | SMILES | Prenylation by HIPT1 (product formed) (HIPT1 [1]) | Km (HIPT1 [2]; acceptor substrate) [µM] | Acceptance as substrate of HIPT1 (HIPT1 [3]) | other results
1 | O=C(/C=C/c1ccc(O)cc1)c1c(O)cc(O)cc1O [Chalconaringenin, chalconaringenin] | forming desmethylxanthohumol | 196 ± 24.8 | – | –
2 | O=C(/C=C/c1ccc(O)cc1)c1ccc(O)cc1O [isoliquiritigenin] | – | – | can accept | –
3 | Cc1cc(O)cc(O)c1 [orcinol] | – | – | can accept | –
4 | CC(C)CC(=O)c1c(O)cc(O)cc1O [PIVP, phlorisovalerophenone] | forming prenyl PIVP | 4.95 ± 0.25 | – | –
5 | Oc1ccc(C=Cc2cc(O)cc(O)c2)cc1 [resveratrol] | – | – | can accept | –
6 | CC(C)=CCOP(=O)(O)OP(=O)(O)O [DMAPP, dimethylallyldiphosphate] | – | – | – | Km (HIPT1 [2]; prenyl donor, determined with PIVP as acceptor substrate): 16.8 ± 2.35 µM
7 | CC(C)=CCc1c(O)cc(O)c(C(=O)C(C)C)c1O [prenyl-PIBP] | – | – | does prenylate prenyl-PIBP to form diprenyl-PIBP | –
8 | O=C(O)CN(CCN(CC(=O)O)CC(=O)O)CC(=O)O [EDTA] | – | – | – | Effect on prenyltransferase activity of HIPT1 (HIPT1 [4]): completely inhibited
9 | CC(C)C(=O)c1c(O)cc(O)cc1O [PIBP, phlorisobutyryphenone] | forming prenyl PIBP | 10.2 ± 0.55 | – | –
